Test results as given in ChEMBL document CHEMBL1201862, “PubChem BioAssay data set” (2004).
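Cultured in 96-well plates, cells were exposed to test compound for 48 hours across five concentrations. GI50 marks 50% less growth.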 Active and inactive are the calls of the source. No stated cut-off is given here; in the data, active = GI50 up to about 1.1 µM and inactive = higher.

Legend:
Experiment in all cases: NCI anticancer screen, dose series, 48 h
[1] = system: HL-60
[2] = system: UACC-257
[3] = system: SK-MEL-28
[4] = system: KM-20L2
[5] = system: A498
[6] = system: SF-539
[7] = system: UO-31
[8] = system: SN12C
[9] = system: SW-620
[10] = system: U-251
[11] = system: LOX IMVI
[12] = system: OVCAR-8
[13] = system: ACHN
[14] = system: SNB-78
[15] = system: KM12
[16] = system: SNB-19
[17] = system: A549
[18] = system: SF-268
[19] = system: SK-MEL-2
[20] = system: NCI-H460
[21] = system: HOP-18
[22] = system: HOP-62
[23] = system: UACC-62
[24] = system: MOLT-4
[25] = system: SK-MEL-5
[26] = system: OVCAR-4
[27] = system: SK-OV-3
[28] = system: HCC 2998
[29] = system: OVCAR-5
[30] = system: CAKI-1
[31] = system: NCI-H23
[32] = system: TK-10
[33] = system: HCT-15
[34] = system: HT-29
[35] = system: DLD-1
[36] = system: CCRF-CEM
[37] = system: M14
[38] = system: DMS-273
[39] = system: EKVX
[40] = system: Malme-3M
[41] = system: RPMI-8226
[42] = system: 786-0
[43] = system: M19-MEL
[44] = system: HCT-116
[45] = system: K562
[46] = system: LXFL 529
[47] = system: XF498
[48] = system: SF-295
[49] = system: SNB-75
[50] = system: IGROV-1
[51] = system: RXF 393
[52] = system: SR
[53] = system: COLO 205
[54] = system: HOP-92
[55] = system: NCI-H226
[56] = system: OVCAR-3
[57] = system: DMS-114
[58] = system: NCI-H522

CNC(=S)OCCC(C)CCCC(C)C (centres undefined)
GI50 [1]: 6.84 µM (inactive)
GI50 [2]: 16.4 µM (inactive)
GI50 [3]: 24.7 µM (inactive)
GI50 [4]: 16.3 µM (inactive)
GI50 [5]: 16.3 µM (inactive)
GI50 [6]: 16.8 µM (inactive)
GI50 [7]: 7.16 µM (inactive)
GI50 [8]: 16.3 µM (inactive)
GI50 [9]: 16.6 µM (inactive)
GI50 [10]: 15.5 µM (inactive)
GI50 [11]: 13.2 µM (inactive)
GI50 [12]: 17.3 µM (inactive)
GI50 [13]: 18.8 µM (inactive)
GI50 [14]: 18.8 µM (inactive)
GI50 [15]: 14.4 µM (inactive)
GI50 [16]: 16.9 µM (inactive)
GI50 [17]: 16.3 µM (inactive)
GI50 [18]: 17 µM (inactive)
GI50 [19]: 13.7 µM (inactive)
GI50 [20]: 18.7 µM (inactive)
GI50 [21]: 15.3 µM (inactive)
GI50 [22]: 19.6 µM (inactive)
GI50 [23]: 15.5 µM (inactive)
GI50 [24]: 11.2 µM (inactive)
GI50 [25]: 17.5 µM (inactive)
GI50 [26]: 16.7 µM (inactive)
GI50 [27]: 20.9 µM (inactive)
GI50 [28]: 18 µM (inactive)
GI50 [29]: 11.3 µM (inactive)
GI50 [30]: 17.1 µM (inactive)
GI50 [31]: 18.8 µM (inactive)
GI50 [32]: 12.8 µM (inactive)
GI50 [33]: 14.7 µM
GI50 [34]: 17.3 µM (inactive)
GI50 [35]: 15.5 µM (inactive)
GI50 [36]: 19.4 µM (inactive)
GI50 [37]: 18.6 µM (inactive)
GI50 [38]: 16.8 µM (inactive)
GI50 [39]: 17.1 µM (inactive)
GI50 [40]: 21.5 µM (inactive)
GI50 [41]: 10.8 µM (inactive)
GI50 [42]: 17.2 µM (inactive)
GI50 [43]: 19.3 µM (inactive)
GI50 [44]: 16.7 µM (inactive)
GI50 [45]: 13.7 µM (inactive)
GI50 [46]: 15.8 µM (inactive)
GI50 [47]: 17 µM (inactive)
GI50 [48]: 21.5 µM (inactive)
GI50 [49]: 20.8 µM (inactive)
GI50 [50]: 17.3 µM (inactive)
GI50 [51]: 16.2 µM (inactive)
GI50 [52]: 14 µM (inactive)

CC(C)N1C(C)[C@@H](c2ccccc2)O[P@]1(=O)CC1=CCCCC1 (some centres undefined)
GI50 [1]: 22.4 µM (inactive)
GI50 [2]: 68.1 µM (inactive)
GI50 [3]: > 100 µM (inactive)
GI50 [4]: 94.8 µM (inactive)
GI50 [5]: > 100 µM (inactive)
GI50 [6]: > 100 µM (inactive)
GI50 [7]: 74 µM (inactive)
GI50 [8]: > 100 µM (inactive)
GI50 [9]: 61.2 µM (inactive)
GI50 [10]: > 100 µM (inactive)
GI50 [53]: 98.4 µM (inactive)
GI50 [11]: 74.1 µM (inactive)
GI50 [54]: 42.2 µM (inactive)
GI50 [12]: > 100 µM (inactive)
GI50 [13]: > 100 µM (inactive)
GI50 [15]: > 100 µM (inactive)
GI50 [55]: > 100 µM (inactive)
GI50 [16]: > 100 µM (inactive)
GI50 [17]: > 100 µM (inactive)
GI50 [18]: > 100 µM (inactive)
GI50 [56]: 62.7 µM (inactive)
GI50 [19]: > 100 µM (inactive)
GI50 [20]: 87.1 µM (inactive)
GI50 [21]: > 100 µM (inactive)
GI50 [22]: > 100 µM (inactive)
GI50 [23]: 51.5 µM (inactive)
GI50 [24]: 44.3 µM (inactive)
GI50 [25]: 45.2 µM (inactive)
GI50 [27]: > 100 µM (inactive)
GI50 [28]: 99.3 µM (inactive)
GI50 [29]: 88.5 µM (inactive)
GI50 [57]: 49.5 µM (inactive)
GI50 [31]: 82.8 µM (inactive)
GI50 [32]: > 100 µM (inactive)
GI50 [33]: > 100 µM
GI50 [58]: 97.5 µM (inactive)
GI50 [34]: > 100 µM (inactive)
GI50 [35]: > 100 µM (inactive)
GI50 [36]: 35.6 µM (inactive)
GI50 [37]: 97.5 µM (inactive)
GI50 [39]: 85.9 µM (inactive)
GI50 [40]: > 100 µM (inactive)
GI50 [41]: 62.8 µM (inactive)
GI50 [42]: > 100 µM (inactive)
GI50 [43]: > 100 µM (inactive)
GI50 [44]: > 100 µM (inactive)
GI50 [45]: 49.3 µM (inactive)
GI50 [46]: 92.5 µM (inactive)
GI50 [47]: > 100 µM (inactive)
GI50 [48]: 40.9 µM (inactive)
GI50 [49]: > 100 µM (inactive)
GI50 [50]: > 100 µM (inactive)
GI50 [51]: > 100 µM (inactive)
GI50 [52]: 44.5 µM (inactive)

CCCCCC(=O)OCCOCCOCCOCCOCCOCc1ccccc1
GI50 [2]: > 100 µM (inactive)
GI50 [3]: > 100 µM (inactive)
GI50 [4]: > 100 µM (inactive)
GI50 [5]: > 100 µM (inactive)
GI50 [6]: > 100 µM (inactive)
GI50 [8]: > 100 µM (inactive)
GI50 [9]: > 100 µM (inactive)
GI50 [10]: > 100 µM (inactive)
GI50 [53]: > 100 µM (inactive)
GI50 [11]: > 100 µM (inactive)
GI50 [54]: > 100 µM (inactive)
GI50 [12]: > 100 µM (inactive)
GI50 [13]: > 100 µM (inactive)
GI50 [14]: > 100 µM (inactive)
GI50 [15]: > 100 µM (inactive)
GI50 [55]: > 100 µM (inactive)
GI50 [16]: > 100 µM (inactive)
GI50 [17]: > 100 µM (inactive)
GI50 [18]: > 100 µM (inactive)
GI50 [56]: > 100 µM (inactive)
GI50 [19]: > 100 µM (inactive)
GI50 [20]: > 100 µM (inactive)
GI50 [21]: > 100 µM (inactive)
GI50 [22]: > 100 µM (inactive)
GI50 [23]: > 100 µM (inactive)
GI50 [25]: > 100 µM (inactive)
GI50 [26]: > 100 µM (inactive)
GI50 [29]: > 100 µM (inactive)
GI50 [30]: > 100 µM (inactive)
GI50 [57]: > 100 µM (inactive)
GI50 [31]: > 100 µM (inactive)
GI50 [32]: > 100 µM (inactive)
GI50 [33]: > 100 µM
GI50 [35]: > 100 µM (inactive)
GI50 [38]: > 100 µM (inactive)
GI50 [39]: > 100 µM (inactive)
GI50 [40]: > 100 µM (inactive)
GI50 [42]: > 100 µM (inactive)
GI50 [44]: > 100 µM (inactive)
GI50 [47]: > 100 µM (inactive)
GI50 [48]: > 100 µM (inactive)
GI50 [50]: > 100 µM (inactive)
GI50 [51]: > 100 µM (inactive)
